Where two headings read alike, the source gives them in different places.
What was measured:
NS3-NS4 protease = target: T1, NS3-NS4 protease (Hepatitis C virus genotype 1a, UniProt P27958); experiment: NS3-NS4 protease assay / NS3 inhibition assay, Section C; assay type: biochemical; conditions: read-out: NS3-NS4 IC50
T1 construct: Recombinant E. coli or Baculovirus full-length NS3 was diluted to 3.33 μM with assay buffer; made in house; host or cells: E. coli or baculovirus (BV) system
Description: NS3 complex formation with NS4A-2.
Recombinant E. coli or Baculovirus full-length NS3 was diluted to 3.33 μM with assay buffer and transfered material to an eppendorf tube and place in water bath in 4° C. refrigerator. The appropriate amount of NS4A-2 to 8.3 mM in assay buffer was added to equal the volume of NS3 in step 2.1.1 (conversion factor −3.8 mg/272 μL assay buffer). The material was transferred to an eppendorf tube and place in water bath in 4° C. refrigerator.
After equilibration to 4° C., equal volumes of NS3 and NS4A-2 solutions were combined in an eppendorf tube, mix gently with a manual pipettor, and incubate mixture for 15 minutes in the 4° C. water bath. Final concentrations in the mixture are […] NS3, 4.15 mM NS4A-2 (2485-fold molar excess NS4A-2).
After 15 minutes at 4° C., the NS3/NS4A-2 eppendorf tube was removed and place it in a room temperature water bath for 10 minutes. NS3/NS4A-2 was alliquoted at appropriate volumes and store at −80° C. (E. coli NS3 run at 2 nM in assay, aliquot at 25 μL. BV NS3 run at 3 nM in assay, aliquot at 30 μL).
Step 2.2.5. Sample compounds were dissolved to 10 mM in DMSO then diluted to 2.5 mM (1:4) in DMSO.
Step 2.2.6. The E. coli. NS3/NS4A-2 was diluted to 4 nM NS3 (1:417.5 of […] stock−18 μL 1.67 μM stock+7497 μL assay buffer). The BV NS3/NS4A-2 was diluted to 6 nM NS3 (1:278.3 of 1.67 μM stock−24 μL 1.67 μM stock+6655 μL assay buffer).
Step 2.2.7. Using the manual multichannel pipettor, and being careful not to introduce bubbles into the plate, 50 μL assay buffer were added to wells A01-H01 of a black Costar 96-well polypropylene storage plate.
Step 2.2.8. Using the manual multichannel pipettor, and being careful not to introduce bubbles into the plate, 50 μL of diluted NS3/NS4A-2 from step 2.2.6 were added to wells A02-H12 of plate in step 2.2.7.
Step 2.2.9. Using the manual multichannel pipettor, and being careful not to introduce bubbles into the plate, 25 μL of the wells in drug dilution plate in step 2.2.5 were transferred to corresponding wells in assay plate in step 2.2.8. The tips on multichannel pipettor were changed for each row of compounds transferred.
Step 2.2.10. Using the manual multichannel pipettor, and being careful not to introduce bubbles into the plate, the contents of the wells from the assay plate in step 2.2.9 were mixed by aspirating and dispensing 35 μL of the 75 μL in each well five times. The tips on the multichannel pipettor were changed for each row of wells mixed.
Step 2.2.11. The plate was covered with a polystyrene plate lid, and the plate from step 2.2.10 containing NS3 protease and sample compounds was pre-incubated 10 minutes at room temperature.
While the plate from step 2.2.11 was pre-incubating, the RETS1 substrate was diluted in a 15 mL polypropylene centrifuge tube. The RETS1 substrate was diluted to 8 μM (1:80.75 of 646 μM stock−65 μL 646 μM stock+5184 μL assay buffer).
After the plate in step 2.2.11 was done pre-incubating, and using the manual multichannel, 25 μL of substrate were added to all wells on the plate. The contents of the wells of plate were quickly mixed, as in step 2.2.10, but mixing 65 μL of the 100 μL in the wells.
The plate was read in kinetic mode on the Molecular Devices SpectraMax Gemini XS plate reader. Reader settings: Read time: 30 minutes, Interval: 36 seconds, Reads: 51, Excitation λ: 335 nm, Emission λ: 495 nm, cutoff: 475 nm, Automix: off, Calibrate: once, PMT: high, Reads/well: 6, Vmax pts: 21 or 28/51 depending on length of linearity of reaction.
IC50s were determined using a four parameter curve fit equation, and converted to Ki's using the following Km's:
where Ki=IC50/(1+[S]/Km))

[1] = tested on: HCV sub-genomic replicon, GS4.3; experiment: Quantitation by ELISA of NPTII in the HCV sub-genomic replicon, GS4.3, Section C; assay type: cell-based; conditions: GS4.3 cells, 72 h incubation, read-out: EC50
From the text: Quantitation by ELISA of the selectable marker protein, Neomycin phosphotransferase II (NPTII) in the HCV Sub-Genomic Replicon, GS4.3
The HCV sub-genomic replicon (1377/NS3-3′, accession No. AJ242652), stably maintained in HuH-7 hepatoma cells, was created by Lohmann et al. Science 285: 110-113 (1999). The replicon-containing cell culture, designated GS4.3, was obtained from Dr. Christoph Seeger of the Institute for Cancer Research, Fox Chase Cancer Center, Philadelphia, Pa.
GS4.3 cells were maintained at 37° C., 5% CO2, in DMEM (Gibco 11965-092) supplemented with L-glutamine 200 mM (100×) (Gibco25030-081), non-essential amino acids (NEAA)(Biowhittaker 13-114E), heat-inactivated (HI) Fetal Bovine Serum(FBS)(Hyclone SH3007.03) and 750 μg/ml geneticin (G418)(Gibco 10131-035). Cells were sub-divided 1:3 or 4 every 2-3 days.
24 h prior to the assay, GS4.3 cells were collected, counted, and plated in 96-well plates (Costar 3585) at 7500 cells/well in 100 μl standard maintenance medium (above) and incubated in the conditions above. To initiate the assay, culture medium was removed, cells were washed once with PBS (Gibco 10010-023) and 90 μl Assay Medium (DMEM, L-glutamine, NEAA, 10% HI FBS, no G418) was added. Inhibitors were made as a 10× stock in Assay Medium, (3-fold dilutions from 10 μM to […] final concentration, final DMSO concentration 1%), 10 μl were added to duplicate wells, plates were rocked to mix, and incubated as above for 72 h.
An NPTII Elisa kit was obtained from AGDIA, Inc. (Compound direct ELISA test system for Neomycin Phosphotransferase II, PSP 73000/4800). Manufacturer's instructions were followed, with some modifications. 10×PEB-1 lysis buffer was made up to include 500 μM PMSF (Sigma P7626, 50 mM stock in isopropanol). After 72 h incubation, cells were washed once with PBS and 150 μl PEB-1 with PMSF was added per well. Plates were agitated vigorously for 15 minutes, room temperature, then frozen at −70° C. Plates were thawed, lysates were mixed thoroughly, and 100 μl were applied to an NPTII Elisa plate. A standard curve was made. Lysate from DMSO-treated control cells was pooled, serially diluted with PEB-1 with PMSF, and applied to duplicate wells of the ELISA plate, in a range of initial lysate amount of 150u1-2.5 ul. In addition, 100 μl buffer alone was applied in duplicate as a blank. Plates were sealed and gently agitated at room temperature for 2 h. Following capture incubation, the plates were washed 5×300 μl with PBS-T (0.5% Tween-20, PBS-T was supplied in the ELISA kit). For detection, a 1× dilution of enzyme conjugate diluent MRS-2 (5×) was made in PBS-T, into which 1:100 dilutions of enzyme conjugates A and B were added, as per instructions. Plates were resealed, and incubated with agitation, covered, room temperature, for 2 h. The washing was then repeated and 100 μl of room temperature TMB substrate was added. After approximately 30 minutes incubation (room temperature, agitation, covered), the reaction was stopped with 50 μl 3M sulfuric acid. Plates were read at 450 nm on a Molecular Devices Versamax plate reader.
Inhibitor effect was expressed as a percentage of DMSO-treated control signal, and inhibition curves were calculated using a 4-parameter equation: y=A+((B−A)/(1+((C/x)^D))), where C is half-maximal activity or EC50.

T1 sequence (P27958 1027-1657): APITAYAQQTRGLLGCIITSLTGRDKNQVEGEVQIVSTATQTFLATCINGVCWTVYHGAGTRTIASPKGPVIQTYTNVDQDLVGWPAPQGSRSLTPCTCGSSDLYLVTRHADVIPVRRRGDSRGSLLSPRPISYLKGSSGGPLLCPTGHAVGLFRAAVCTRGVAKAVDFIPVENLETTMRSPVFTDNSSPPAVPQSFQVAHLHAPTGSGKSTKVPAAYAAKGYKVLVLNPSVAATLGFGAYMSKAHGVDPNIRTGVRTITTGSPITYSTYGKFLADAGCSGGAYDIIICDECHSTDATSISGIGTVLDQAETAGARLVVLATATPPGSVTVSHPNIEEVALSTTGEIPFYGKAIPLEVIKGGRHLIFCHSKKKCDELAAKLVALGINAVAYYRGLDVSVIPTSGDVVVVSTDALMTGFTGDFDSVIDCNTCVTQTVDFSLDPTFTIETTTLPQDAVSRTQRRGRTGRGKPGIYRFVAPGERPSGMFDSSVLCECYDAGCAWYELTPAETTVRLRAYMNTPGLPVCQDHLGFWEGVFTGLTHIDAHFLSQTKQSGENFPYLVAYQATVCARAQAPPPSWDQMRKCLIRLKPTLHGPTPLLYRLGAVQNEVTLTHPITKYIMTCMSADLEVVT

In the case of `CN(C)S(=O)(=O)NC(=O)[C@@]12C[C@H]1C=CCCCCC[C@H](NC(=O)OC(C)(C)C)C(=O)N1C[C@H](OC(=O)N3Cc4ccccc4C3)C[C@H]1C(=O)N2` [Compound 101, (1S,4R,6S,14S,18R)-1,3-Dihydro-isoindole-2-carboxylic acid 14-tert-butoxycarbonylamino-4-(N,N-dimethylsulfonyl-aminocarbonyl)-2,15-dioxo-3,16-diaza-tricyclo[14.3.0.0^4,6]nonadec-7-en-18-yl ester], the IC50 (NS3-NS4 protease) is reported as less than 100 nM and the EC50 [1] is reported as less than 100 nM.

`CC(C)(C)OC(=O)N[C@H]1CCCCC/C=C\[C@@H]2C[C@@]2(C(=O)NS(=O)(=O)NC2CC2)NC(=O)[C@@H]2C[C@@H](OC(=O)N3Cc4ccccc4C3)CN2C1=O` [Compound 102] was tested, and the IC50 (NS3-NS4 protease) was less than 100 nM and the EC50 ([1]; Hepatitis C virus) was less than 100 nM.

For `CC(C)(C)OC(=O)N[C@H]1CCCCC/C=C\[C@@H]2C[C@@]2(C(=O)NS(=O)(=O)N2CCCC2)NC(=O)[C@@H]2C[C@@H](OC(=O)N3Cc4ccccc4C3)CN2C1=O` [Compound 103, (1S,4R,6S,14S,18R)-1,3-Dihydro-isoindole-2-carboxylic acid 14-tert-butoxycarbonylamino-4-(pyrrolidinosulfonyl-aminocarbonyl)-2,15-dioxo-3,16-diaza-tricyclo[14.3.0.0^4,6]nonadec-7-en-18-yl ester], the IC50 (NS3-NS4 protease) was less than 100 nM and the EC50 ([1]; Hepatitis C virus) was less than 100 nM.

`CC(C)(C)OC(=O)N[C@H]1CCCCC/C=C\[C@@H]2C[C@@]2(C(=O)NS(=O)(=O)Nc2nccs2)NC(=O)[C@@H]2C[C@@H](OC(=O)N3Cc4ccccc4C3)CN2C1=O` [Compound 105, (1S,4R,6S,14S,18R)-1,3-Dihydro-isoindole-2-carboxylic acid 14-tert-butoxycarbonylamino-4-(thiazol-2-ylaminosulfonylaminocarbonyl)-2,15-dioxo-3,16-diaza-tricyclo[14.3.0.0^4,6]nonadec-7-en-18-yl ester] showed an IC50 (NS3-NS4 protease) of less than 100 nM.

With `CC(C)(C)OC(=O)N[C@H]1CCCCC/C=C\[C@@H]2C[C@@]2(C(=O)NS(=O)(=O)N2CCOCC2)NC(=O)[C@@H]2C[C@@H](OC(=O)N3CCc4ccccc4C3CN3CCCCC3)CN2C1=O` (stereo partly drawn) [Compound 110, (1S,4R,6S,14S,18R)-1-Piperidin-1-ylmethyl-3,4-dihydro-1H-isoquinoline-2-carboxylic acid 14-tert-butoxycarbonylamino-2,15-dioxo-4-(morpholino-sulfonylaminocarbonyl)-3,16-diaza-tricyclo[14.3.0.0^4,6]nonadec-7-en-18-yl ester] the IC50 (NS3-NS4 protease) was less than 1000 nM.

With `CC(C)(C)OC(=O)N[C@H]1CCCCC/C=C\[C@@H]2C[C@@]2(C(=O)NS(=O)(=O)N2CCCC2)NC(=O)C2C[C@@H](OC(=O)N3CCc4ccccc4C3CN3CCOCC3)CN2C1=O` (stereo partly drawn) [Compound 111, (1S,4R,6S,14S,18R)-1-Morpholine-4-ylmethyl-3,4-dihydro-1H-isoquinoline-2-carboxylic acid 14-tert-butoxycarbonylamino-2,15-dioxo-4-(pyrrolidine-1-sulfonylaminocarbonyl)-3,16-diaza-tricyclo[14.3.0.0^4,6]nonadec-7-en-18-yl ester] the IC50 (NS3-NS4 protease) was less than 100 nM.

`CC(C)(C)OC(=O)N[C@H]1CCCCC/C=C\[C@@H]2C[C@@]2(C(=O)NS(=O)(=O)N2CCCC2)NC(=O)C2C[C@@H](OC(=O)NC(CN3CCOCC3)c3ccccc3)CN2C1=O` (stereo partly drawn) [Compound 112, (1S,4R,6S,14S,18R)-(2-Morpholin-4-yl-1-phenyl-ethyl)-carbamic acid 14-tert-butoxycarbonylamino-2,15-dioxo-4-(pyrrolidine-1-sulfonylaminocarbonyl)-3,16-diaza-tricyclo[14.3.0.0^4,6]nonadec-7-en-18-yl ester] showed an IC50 (NS3-NS4 protease) of less than 100 nM.

`CC(C)(C)OC(=O)N[C@H]1CCCCC/C=C\[C@@H]2C[C@@]2(C(=O)NS(=O)(=O)N2CCNCC2)NC(=O)[C@@H]2C[C@@H](OC(=O)N3Cc4ccccc4C3)CN2C1=O` [Compound 120, (1S,4R,6S,14S,18R)-1,3-Dihydro-isoindole-2-carboxylic acid 14-tert-butoxycarbonylamino-4-(piperazine-1-sulfonyl-aminocarbonyl)-2,15-dioxo-3,16-diaza-tricyclo[14.3.0.0^4,6]nonadec-7-en-18-yl ester] showed an IC50 (NS3-NS4 protease) of less than 100 nM.

`CC(C)(C)OC(=O)N[C@H]1CCCCC/C=C\[C@@H]2C[C@@]2(C(=O)NS(=O)(=O)NC2(C#N)CC2)NC(=O)[C@@H]2C[C@@H](OC(=O)N3Cc4ccccc4C3)CN2C1=O` [Compound 123, (1S,4R,6S,14S,18R)-1,3-Dihydro-isoindole-2-carboxylic acid 14-tert-butoxycarbonylamino-4-(N-(1-cyanocyclopropyl)aminosulfonyl-aminocarbonyl)-2,15-dioxo-3,16-diaza-tricyclo[14.3.0.0^4,6]nonadec-7-en-18-yl ester] showed an IC50 (NS3-NS4 protease) of less than 100 nM.
